Measured values reported in US20070259856A1, “Method for Activating Trpv4 Channel Receptors by Agonists” (priority 2004, published 2007).

Assays:
[1] = tested on: bovine articular cartilage explants; test: IL-1 induced collagen degradation (hydroxyproline) in bovine articular cartilage explants; format: cell-based; conditions: 1 uM, IL-1 50 ng/ml, media from day 14-18
Protocol: IL-1 stimulates collagen degradation in bovine articular cartilage explants after extended (−2-3 weeks) exposure to IL-1. Collagen breakdown was evaluated by measuring the levels of hydroxyproline, a major component of hydrolyzed collagen fibrils, using a colorimetric assay that is understood in the art. Bovine articular cartilage was stimulated with IL-1 for 18 days, in the absence or presence of Formula Ib or Formula IId (both at 1 uM). Media was removed and replaced every 2-4 days with fresh IL-1 and compound through day 18. As has been shown previously, aggrecan degradation precedes collagen breakdown in IL-1-stimulated bovine cartilage explants. Once aggrecan depletion had been achieved by day 10, media were analyzed for collagen breakdown using the hydroxyproline assay.

nitric oxide = test: IL-1 induced nitric oxide production, bovine articular chondrocytes in alginate beads (Greiss reaction); format: cell-based; conditions: IL-1 10 ng/mL
Protocol: Nitric oxide (NO) is a free radical that is believed to contribute to the tissue destruction in osteoarthritis. While having direct effects on cartilage matrix damage, NO can also contribute by activating latent proteases which leads to increased tissue destruction. To evaluate the effect of TRPV4 channel receptor agonists on NO production, bovine articular chondrocytes were embedded in alginate beads as described in Hauselmann, et al. (1992) Matrix 12: 116-129, and NO levels were determined in the conditioned media by Greiss reaction (Badger A M, et al. (1998) J. Immunol. 161: 467-473), following stimulation by IL-1, in the absence or presence of TRPV4 channel receptor agonist.

proteoglycan synthesis = test: Proteoglycan synthesis ([35S] incorporation), bovine articular chondrocytes in alginate beads; format: cell-based; conditions: IL-1 10 ng/mL
Excerpt: Although cartilage degradation is the hallmark of osteoarthritis, there is also a reduction in the ability of chondrocytes to resynthesize damaged matrix. It has been observed that cytokines, including IL-1, cause a significant reduction in collagen and proteoglycan (PG) synthesis. The effect on matrix synthesis, combined with the stimulation of matrix breakdown by these cytokines, leads to an overall net loss of cartilage matrix. The effects of TRPV4 channel receptor agonists on the synthesis of proteoglycans was measured by [^35S] incorporation in bovine articular chondrocytes embedded in alginate beads. IL-1 caused an inhibition of [^35S] incorporation into large molecular weight proteoglycan monomers, and Formula IIb caused a concentration-dependent reversal of the IL1-mediated inhibition of PG synthesis as shown in Table 10.

MMP-3 = test: IL-1 induced MMP-3 production in human chondrocytes; format: cell-based; conditions: IL-1 10 ng/mL, 24 hours
Protocol: (§1) Human chondrocytes were exposed to L-1 (10 ng/mL) to induce MMP-3 and MMP-13 production. Increased production of MMP-3 and MMP-13 was verified by both Northern blot (mRNA) and ELISA assay (protein). Cells were exposed to Formula IIb at concentrations ranging from 0.1 μM to 10 μM. […] TRPV4 channel receptor agonist inhibits IL-1-induced MMP-3 and MMP-13 production.

ADAMTS-4 (aggrecanase-1) = target: T1, ADAMTS-4 (aggrecanase-1) (Homo sapiens, UniProt O75173); test: Cleavage of the peptide substrate by soluble ADAMTS-4; format: biochemical
T1 sequence (O75173 213-837): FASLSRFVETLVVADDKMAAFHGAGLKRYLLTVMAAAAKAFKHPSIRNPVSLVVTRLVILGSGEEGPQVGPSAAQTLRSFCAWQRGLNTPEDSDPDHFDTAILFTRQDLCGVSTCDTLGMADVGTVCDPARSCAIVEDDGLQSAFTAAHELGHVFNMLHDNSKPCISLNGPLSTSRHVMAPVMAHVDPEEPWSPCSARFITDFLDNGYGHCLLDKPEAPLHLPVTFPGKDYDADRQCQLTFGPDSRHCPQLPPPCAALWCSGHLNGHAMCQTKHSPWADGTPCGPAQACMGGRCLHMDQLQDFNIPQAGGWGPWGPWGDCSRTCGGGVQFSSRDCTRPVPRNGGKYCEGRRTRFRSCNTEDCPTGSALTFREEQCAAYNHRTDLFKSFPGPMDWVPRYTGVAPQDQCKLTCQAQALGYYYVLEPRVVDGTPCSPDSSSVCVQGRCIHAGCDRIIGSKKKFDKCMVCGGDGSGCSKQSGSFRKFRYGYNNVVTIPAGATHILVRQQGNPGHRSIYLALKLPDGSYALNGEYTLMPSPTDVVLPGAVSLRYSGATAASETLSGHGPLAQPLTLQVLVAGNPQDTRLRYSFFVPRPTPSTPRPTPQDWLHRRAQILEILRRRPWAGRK

MMP-13 = test: IL-1 induced MMP-13 production in human chondrocytes; format: cell-based; conditions: IL-1 10 ng/mL, 24 hours
Protocol: as §1

aggrecanase = test: IL-1 induced aggrecanase production, chondrocyte-based aggrecanase peptide cleavage assay; format: cell-based, bovine; conditions: IL-1 3.0 ng/mL; for Aggrecanase Production (Mean ± SEM OD 450 nm): 24 hour
Excerpt: Aggrecanases (ADAMTSs), in conjunction with MMPs, degrade aggrecan, one of the major matrix components in articular cartilage. […] 2003; 48(1): 119-133].

For `CC(C)C[C@H](NC(=O)c1cc2ccccc2s1)C(=O)N[C@@H]1CCCN(S(=O)(=O)c2ccc(F)cc2)CC1=O` [Formula IIb, N-{(1S)-1-[({(4R)-1-[(4-fluorophenyl)sulfonyl]-3-oxohexahydro-1H-azepin-4-yl}amino)carbonyl]-3-methylbutyl}-1-benzothiophene-2-carboxamide], the “Hydroxyproline Mean ± SEM” value [1] was 16 ± 6 µg, the inhibition at 1 µM ([1]; Bos taurus, 336 h) was 81% and the “NO levels Mean ± SEM” value (nitric oxide; 0.3 μM) was 17 ± 1 µM. The “NO levels Mean ± SEM” value (nitric oxide; 1.0 μM) was 6 ± 1 µM, the “NO levels Mean ± SEM” value (nitric oxide; 3.0 μM) was 2 ± 0 µM and the inhibition at 0.3 µM (nitric oxide; Bos taurus, Chondrocyte, 0.3 μM, read-out: % inhibition of NO) was 38%. For the same compound, the inhibition at 1 µM (nitric oxide; Bos taurus, Chondrocyte, 1.0 μM, read-out: % inhibition of NO) was 81%, the inhibition at 3 µM (nitric oxide; Bos taurus, Chondrocyte, 3.0 μM, read-out: % inhibition of NO) was 96% and the “% IL-1 reversal” value (proteoglycan synthesis; 0.3 uM) was 3%. For the same compound, the “PG synthesis Mean ± SEM” value (proteoglycan synthesis; 0.3 uM) was 878 ± 48 cpm/bead, the “% IL-1 reversal” value (proteoglycan synthesis; 1.0 uM) was 15% and the “PG synthesis Mean ± SEM” value (proteoglycan synthesis; 1.0 uM) was 1066 ± 69 cpm/bead. The “% IL-1 reversal” value (proteoglycan synthesis; 3.0 uM) was 44%, the “PG synthesis Mean ± SEM” value (proteoglycan synthesis; 3.0 uM) was 1530 ± 73 cpm/bead and the “MMP-3 mRNA expression Mean” value (MMP-3; 0.1 μM) was 0.92 Fraction of IL-1. For the same compound, the “MMP-3 mRNA expression Mean” value (MMP-3; 0.3 μM) was 0.91 Fraction of IL-1, the “MMP-3 mRNA expression Mean” value (MMP-3; 1.0 μM) was 0.88 Fraction of IL-1 and the “MMP-3 mRNA expression Mean” value (MMP-3; 3.0 μM) was 0.68 Fraction of IL-1. For the same compound, the “MMP-3 mRNA expression Mean” value (MMP-3; 10.00 μM) was 0.43 Fraction of IL-1, the “effect on cleavage of the peptide substrate by soluble ADAMTS-4” value (ADAMTS-4 (aggrecanase-1)) was “no effect” and the “MMP-13 mRNA expression Mean” value (MMP-13; 0.1 μM) was 0.89 Fraction of IL-1. The “MMP-13 mRNA expression Mean” value (MMP-13; 0.3 μM) was 0.87 Fraction of IL-1, the “MMP-13 mRNA expression Mean” value (MMP-13; 1.0 μM) was 0.79 Fraction of IL-1 and the “MMP-13 mRNA expression Mean” value (MMP-13; 3.0 μM) was 0.29 Fraction of IL-1. For the same compound, the “MMP-13 mRNA expression Mean” value (MMP-13; 10.00 μM) was 0.09 Fraction of IL-1, the “Aggrecanase Production (Mean ± SEM OD 450 nm)” value (aggrecanase; 0.03 μM) was 2.018 ± 0.044 OD 450 nm and the “Aggrecanase Production (Mean ± SEM OD 450 nm)” value (aggrecanase; 0.10 μM) was 1.669 ± 0.029 OD 450 nm. For the same compound, the “Aggrecanase Production (Mean ± SEM OD 450 nm)” value (aggrecanase; 0.30 μM) was 1.139 ± 0.032 OD 450 nm, the “Aggrecanase Production (Mean ± SEM OD 450 nm)” value (aggrecanase; 1.00 μM) was 0.851 ± 0.024 OD 450 nm and the inhibition at 0.03 µM (aggrecanase; Bos taurus, 0.03 μM) was 11%. It also gave an inhibition at 0.1 µM (aggrecanase; Bos taurus, 0.10 μM) of 33%, an inhibition at 0.3 µM (aggrecanase; Bos taurus, 0.30 μM) of 65% and an inhibition at 1 µM (aggrecanase; Bos taurus, 1.00 μM) of 83%.
